Test results taken from patent US9000155B2, “Cyclic triazo sodium channel blockers” (University of Greenwich, priority 2009, dated 2015).
Where “and” joins values, the source holds several entries; their conditions need not be identical. Equal values may be shown once. Where a name gives a salt, the structure may show the parent alone. Read-outs that look alike come from different tables or passages of the source.

Assays:
Microsome stability = type: in vitro ADME, human; settings: 1 μM
Procedure: Compounds were sent to BioFocus for measurement of their stability @ 1 μM concentration following incubation with rat liver microsomes for 40 minutes @ 37°.

[1] = tested on: maximal electroshock-induced tonic convulsions; assay: Rat MES (Maximal ElectroShock) anticonvulsant test; type: in vivo; settings: for MES Results (% protection): n = 5 rats; for ED50: Rattus norvegicus, po
Procedure: Male Wistar rats provided by BioLasco Taiwan (under Charles River Laboratories Technology Licensee) were used. Space allocation for 5 animals was 45×23×21 cm. Animals were housed in animal cages and maintained in a controlled temperature (21-23° C.) and humidity (50%-70%) environment with 12 hours light/dark cycles for at least three days in MDS Pharma Services—Taiwan Laboratory prior to use. Free access to standard lab chow for rats [MF-18 (Oriental Yeast Co., Ltd. Japan)] and reverse osmosis (RO) water were granted ad libitum. All aspects of this work including housing, experimentation and disposal of animals were performed in general accordance with the Guide for the Care and Use of Laboratory Animals (National Academy Press, Washington, D.C., 1996).
Test compounds were suspended/dissolved in 2% Tween 80 and dosed orally at a dose volume of 10 ml/Kg to groups of 5 Wistar male rats weighing 180+/−20 g, one hour before maximal electroshock (MES, 60 Hz sine wave, 150 mA, 200 msec duration) was applied through corneal electrodes. Appearance of maximal electroshock-induced tonic convulsions (MES) was determined for each animal. 50 percent or more (50%) inhibition of tonic convulsions by test substance indicates significant anticonvulsant activity.
Test substances (CEN-216, CEN-145, CEN-148, CEN-152 and CEN-154) at 14, 42 or 100 mg/kg were administered orally to groups of 5 Wistar derived male rats weighing 180±20 g.
In rat model of epilepsy (Maximal ElectroShock—MES), in which compounds were dosed orally one hour prior to ‘shock’, the ED50 (effective dose to protect 50% of rats from limb extension etc.) for CEN-216 is approx 9 mg/kg free base.

sodium channel = type: biochemical, rat; settings: read-out: [14C]guanidine flux Mean IC50
Text: The screening strategy is designed to select compounds with appropriate sodium channel blocking activity and low side effect liability. To this end all compounds are processed through the primary sodium channel assay (veratrine-evoked uptake of [^14C]guanidine into rat forebrain synaptosomes) and IC50 values computed from generated concentration-effect curves.
Following killing of animals by stunning and decapitation, the forebrain (whole brain less cerebellum/medulla) was rapidly dissected and transferred to a weighed tube containing ice-cold 0.25M sucrose.
Synaptosomes (heavy and light mitochondrial fraction containing synaptosomes) were prepared by transferring the forebrain (of known wet weight) to a glass Potter vessel to which 9 volumes ice-cold 0.25M sucrose had been added and homogenising, using a teflon pestle, by 8 ‘up and down strokes’ of a Braun Potter S motor driven homogeniser set to 900 rpm. The resulting homogenate was centrifuged at 1036×g at 4° for 10 min and the supernatant collected. The remaining pellet was resuspended, as above, in fresh ice-cold 0.25M sucrose and the centrifugation step repeated. The supernatant fractions were pooled and centrifuged at 40,000×g (average) at 4° for 15 min and the resulting pellet resuspended in the appropriate assay buffer at a concentration of 20-25 mg wet weight per ml appropriate assay buffer. […]

hERG = molecular target: T1, hERG (Homo sapiens, UniProt Q12809); assay: Inhibition of binding of [3H]astemizole to HEK-293 cells expressing hERG; settings: for inhibition at 10 µM: human, HEK-293 cells expressing human recombinant hERG, probe [3H]astemizole
T1 construct: host or cells: HEK-293
T1 sequence (Q12809 whole entry): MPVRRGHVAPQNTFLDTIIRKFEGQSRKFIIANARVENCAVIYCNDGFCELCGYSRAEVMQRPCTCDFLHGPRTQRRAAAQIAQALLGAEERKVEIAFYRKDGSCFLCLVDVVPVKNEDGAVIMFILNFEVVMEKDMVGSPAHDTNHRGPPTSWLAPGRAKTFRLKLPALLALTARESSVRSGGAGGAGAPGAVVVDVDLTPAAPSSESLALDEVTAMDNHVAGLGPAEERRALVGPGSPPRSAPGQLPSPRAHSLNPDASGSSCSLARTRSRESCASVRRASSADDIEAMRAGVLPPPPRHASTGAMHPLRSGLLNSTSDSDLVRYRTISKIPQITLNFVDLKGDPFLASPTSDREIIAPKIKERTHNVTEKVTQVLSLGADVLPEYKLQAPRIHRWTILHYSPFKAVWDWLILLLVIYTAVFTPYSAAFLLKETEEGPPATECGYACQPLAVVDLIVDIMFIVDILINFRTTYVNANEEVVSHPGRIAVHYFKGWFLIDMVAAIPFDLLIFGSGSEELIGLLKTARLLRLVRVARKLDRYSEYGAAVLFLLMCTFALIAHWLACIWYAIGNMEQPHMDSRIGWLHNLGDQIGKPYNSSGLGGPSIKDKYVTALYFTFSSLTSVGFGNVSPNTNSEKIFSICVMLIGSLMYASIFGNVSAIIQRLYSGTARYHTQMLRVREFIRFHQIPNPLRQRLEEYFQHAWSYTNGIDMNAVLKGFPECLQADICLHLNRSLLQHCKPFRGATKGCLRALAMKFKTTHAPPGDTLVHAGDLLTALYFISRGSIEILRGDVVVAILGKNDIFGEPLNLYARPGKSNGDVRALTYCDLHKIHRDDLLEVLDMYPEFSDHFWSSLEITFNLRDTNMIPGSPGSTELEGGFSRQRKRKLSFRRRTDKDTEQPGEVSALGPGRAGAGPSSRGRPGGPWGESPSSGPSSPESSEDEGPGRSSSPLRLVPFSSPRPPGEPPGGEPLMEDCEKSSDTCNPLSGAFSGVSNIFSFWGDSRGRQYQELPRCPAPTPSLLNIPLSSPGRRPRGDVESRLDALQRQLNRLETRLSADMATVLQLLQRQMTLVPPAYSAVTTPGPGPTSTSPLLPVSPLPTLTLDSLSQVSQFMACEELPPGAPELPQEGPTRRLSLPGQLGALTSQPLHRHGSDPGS
Procedure: Another common side-effect marker is inhibition of human Ether-a-go-go Related Gene potassium (hERG) potassium channel (Inward rectifying, IKr) activity which can be fatal due to heart failure brought about by development of long QT syndrome. A useful preliminary screen to assess potential to affect this channel is assessed by measurement of inhibition of the binding of [3H]astemizole to cell membranes expressing hERG. Selected compounds are tested for this activity by measurement of inhibition @ 10 μM.
Compounds were sent to MDS Pharma for measurement of their inhibition @ 10 μM concentration of the binding of [^3H]astemizole to HEK-293 cells expressing human recombinant hERG.

Sodium Channel, Site 2 = assay: Inhibition of binding of [3H]BTX-B to Wistar rat brain
[2] = tested on: maximal electroshock (MES); assay: Mouse MES model of epilepsy; type: in vivo; settings: 72 mg/Kg (free base) po
Procedure: In mouse model of epilepsy (MES), compounds CEN-079 and CEN-216 were dosed orally (100 and 72 mg/kg free base respectively) @ 1 h, 6 h and 24 h prior to ‘shock).

L-Type Calcium Channels = assay: L-type calcium channel binding ([3H]nitrendipine, rat cerebral cortex membranes)
Text: Compounds were sent to MDS Pharma for measurement of their inhibition @ […] of the binding of [^3H]nitrendipine to rat cerebral cortex membranes.

[3] = tested on: 0.4 mm slices of rat hippocampus; type: cell-based
[4] = extrapolated, read-out: hERG ([3H]astemizole) (extrapolated IC50 μM)
[5] = hERG IC50 (μM) (extrapolated from 10 μM inh'n), extrapolated from 10 μM inhibition, slope assumed 1.0
[6] = extrapolated, read-out: Nach ([3H]BTX-B) (extrapolated IC50 μM)
[7] = read-out: [3H]BTX-B binding Extrapolated IC50
[8] = 1 h, read-out: Rat MES ED50 (very approx, from single 100 mg/kg dose), free base, one hour prior to shock

## Nc1nnc(-c2cccc(Cl)c2Cl)c(N)n1 [CEN-1, 3,5-Diamino-6-(2,3-dichlorophenyl)-1,2,4-triazine, reference compound]
Microsome stability
  Microsome stability (human) % metabolized (40 min incubation 37°): 20%
[1]; 3 mg/kg po
  MES Results (% protection): 60%
[1]; 10 mg/kg po
  MES Results (% protection): 100%
[1]; 25 mg/kg po
  MES Results (% protection): 100%
Sodium channel
  IC50: 219 µM

## N=c1nc(N)c(-c2cccc(Cl)c2Cl)nn1CC(Cl)(Cl)Cl [CEN-216, 5(3)-Amino-6-(2,3-dichlorophenyl)-2,3(2,5)-dihydro-3(5)-imino-2-(2,2,2-trichloroethyl)-1,2,4-triazine trifluoromethanesulphonate]
Microsome stability
  Microsome stability (human) % metabolized (40 min incubation 37°): 0%
hERG; [4]
  IC50: 50 µM
hERG; [5]
  IC50: 73.3 µM
hERG
  inhibition at 10 µM: 12%
Sodium Channel, Site 2
  [3H]BTX-B binding % inhibition (@ 10 μM): 42%
Sodium Channel, Site 2; [6]
  IC50: 20 µM
Sodium Channel, Site 2; [7]
  IC50: 13.8 µM
[1]; 1 mg/kg po
  MES Results (% protection): 0%
[1]; 3 mg/kg po
  MES Results (% protection): 0%
[1]; 10 mg/Kg (free base) po
  Rat MES (anticonvulsant in vivo) % protection: 80%
[1]; 10 mg/kg po
  MES Results (% protection): 80%
[1]; 30 mg/kg po
  MES Results (% protection): 100%
[1]; 100 mg/kg po
  MES Results (% protection): 100%
[1]; 1 h, free base, dosed orally one hour prior to shock, read-out: Rat MES ED50 (effective dose to protect 50% of rats)
  ED50: ~9 mg/kg
[1]; read-out: Rat MES ED50
  ED50: 9 mg/kg
[2]
  duration of action following po dose in mouse: long duration of action
[2]; 1 h prior to shock
  Mouse MES % protection: 100%
[2]; 6 h prior to shock
  Mouse MES % protection: 100%
[2]; 24 h prior to shock
  Mouse MES % protection: 100%
L-Type Calcium Channels; 10 μM
  L-type Ca2+ % inhibition @ 10 μM: 27%
L-Type Calcium Channels; extrapolated, read-out: extrapolated IC50 in L-type Calcium (phenylalkylamine site) binding assay
  IC50: 27 µM
L-Type Calcium Channels; read-out: L-type Ca2+ IC50 (μM) (extrapolated from 10 μM inh'n), extrapolated from 10 μM inhibition, slope assumed 1.0
  IC50: 27 µM

## N=c1nc(N)c(-c2cccc(Cl)c2Cl)nn1CC(F)(F)C(F)(F)F [CEN-217]
hERG; [4]
  IC50: 26 µM
hERG; [5]
  IC50: 25.7 µM
hERG
  inhibition at 10 µM: 28%
Sodium Channel, Site 2
  [3H]BTX-B binding % inhibition (@ 10 μM): 105%
Sodium Channel, Site 2; [6]
  IC50: < 0.5 µM
Sodium Channel, Site 2; [7]
  IC50: < 0.5 µM
[1]; 100 mg/Kg (free base) po
  Rat MES (anticonvulsant in vivo) % protection: 60% and 60 @ 100%
[1]; 100 mg/kg po
  MES Results (% protection): 60%
[1]; [8]
  ED50: ~80 mg/kg

## N=c1nc(N)c(-c2cccc(Cl)c2Cl)nn1CC(F)(F)C(F)F [CEN-218]
hERG; [4]
  IC50: 40 µM
hERG; [5]
  IC50: 40 µM
hERG
  inhibition at 10 µM: 20%
Sodium Channel, Site 2
  [3H]BTX-B binding % inhibition (@ 10 μM): 108%
Sodium Channel, Site 2; [6]
  IC50: < 0.5 µM
Sodium Channel, Site 2; [7]
  IC50: < 0.5 µM
[1]; 100 mg/Kg (free base) po
  Rat MES (anticonvulsant in vivo) % protection: 40 @ 100%
[1]; 100 mg/Kg (free base) po, listed as 218
  Rat MES (anticonvulsant in vivo) % protection: 40%
[1]; 100 mg/kg po
  MES Results (% protection): 40%
[1]; [8]
  ED50: ~120 mg/kg

## N=c1nc(N)c(-c2cc(Cl)cc(Cl)c2Cl)nn1CC(Cl)(Cl)Cl [CEN-248]
Sodium Channel, Site 2
  [3H]BTX-B binding % inhibition (@ 10 μM): 27%
Sodium Channel, Site 2; [6]
  IC50: 27 µM
Sodium Channel, Site 2; [7]
  IC50: 27 µM
[1]; 30 mg/Kg (free base) po
  Rat MES (anticonvulsant in vivo) % protection: 100% protection @ 30
[1]; 30 mg/kg po
  MES Results (% protection): 100%

## O=C1NC(=O)C(c2ccccc2)(c2ccccc2)N1 [DiPhenylHydantoin, Diphenylhydantoin sodium salt, reference compound]
[1]; 100 mg/kg po
  MES Results (% protection): 80%
[3]
  % protection (v 1 μM TTX) (mean ± sem): 48%

## NC1=N[C@H](O)[C@H]2[C@H]3O[C@]4(O)O[C@@H]([C@@H](O)[C@@]2(N1)[C@@H]4O)[C@]3(O)CO [TTX, tetrodotoxin]
[3]
  % protection (v 1 μM TTX) (mean ± sem): 100%
